In article PMC4001449, “Thienoquinolines as Novel Disruptors of the PKCε/RACK2 Protein–Protein Interaction” (Journal of Medicinal Chemistry, 2014):

Legend:
NUAK1 = molecular target: T1, NUAK1 (Homo sapiens, UniProt O60285); test: Kinase profiling (Dundee), NUAK1; assay type: biochemical; conditions: 25 μM solution
T1 sequence (O60285 1-661): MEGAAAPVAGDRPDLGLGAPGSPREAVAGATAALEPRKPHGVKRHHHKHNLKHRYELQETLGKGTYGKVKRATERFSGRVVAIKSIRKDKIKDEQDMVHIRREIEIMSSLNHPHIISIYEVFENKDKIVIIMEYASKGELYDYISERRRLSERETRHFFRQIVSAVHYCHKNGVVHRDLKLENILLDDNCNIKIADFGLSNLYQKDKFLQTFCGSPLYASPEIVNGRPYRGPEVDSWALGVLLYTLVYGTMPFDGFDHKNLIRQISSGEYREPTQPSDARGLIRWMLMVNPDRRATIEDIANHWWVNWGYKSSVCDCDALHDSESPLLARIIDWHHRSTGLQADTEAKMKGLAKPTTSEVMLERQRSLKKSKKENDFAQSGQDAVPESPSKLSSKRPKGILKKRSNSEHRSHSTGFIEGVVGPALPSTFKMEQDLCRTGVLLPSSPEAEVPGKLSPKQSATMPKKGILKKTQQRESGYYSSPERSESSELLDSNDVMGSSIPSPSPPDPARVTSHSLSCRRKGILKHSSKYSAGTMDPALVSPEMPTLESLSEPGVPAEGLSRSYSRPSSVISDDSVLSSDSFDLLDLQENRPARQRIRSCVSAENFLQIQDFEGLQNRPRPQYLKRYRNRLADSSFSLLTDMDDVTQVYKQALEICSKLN

PKCδ = PKCδ translocation, cell fractionation and Western blotting in PC-3 cells; assay type: cell-based, human; conditions: TPA, Figure 3
Procedure: For PKCε translocation PC-3 cells were starved for 16 h, treated with 8 for 30 min, stimulated with 50 nM TPA for 5 min, lysed, and fractionated with a CNMCS/CNM compartmental protein extraction kit (BioChain Institute, Newark, CA). Western blotting was performed by a standard procedure as described by Garczarczyk et al.[27],[40] Cytosolic and membrane fractions were loaded onto SDS gels and transferred to an Immobilon membrane (Millipore, Billerica, MA). The membranes were incubated with rabbit polyclonal IgG antibodies for detection of PKCε (Santa Cruz Biotechnology; dilution 1:2000), for PKCε phosphoSer^729 (Millipore; dilution 1:1000), for PKCδ (Santa Cruz Biotechnology; dilution 1:1000), and for MARCKS phosphoSer152/156 (Cell Signaling Technology, Danvers, MA; dilution 1:1000). For the loading control tubulin (Santa Cruz Biotechnology; dilution 1:1000), and as marker for the membrane fraction, an IGFI-βR rabbit polyclonal IgG antibody (Santa Cruz; dilution 1:1000) and, as secondary antibodies, peroxidase-conjugated AffiniPure goat anti-rabbit IgG (Jackson ImmunoResearch Laboratories, West Grove, PA; dilution 1:20000) were used. GAPDH (Chemicon, Millipore, Billerica, MA; dilution 1:10000) was used as loading control for the cytosolic fraction. […]

NUAK1 activity, % of control (NUAK1): 49 % of control
Structure (SMILES): CC(=O)c1cccc(NC(=O)c2sc3nc4cc5c(cc4cc3c2N)OCCO5)c1 [Compound 8, N-(3-acetylphenyl)-9-amino-2,3-dihydro-1,4-dioxino[2,3-g]thieno[2,3-b]quinoline-8-carboxamide]
PKCδ in the membrane (PKCδ): did not decrease
